Reference: the NIST ThermoML archive (doi:10.1021/je020149l)

Key:
[1] = 293.15 K; 101.33 kPa; Liquid; Vibrating tube method
[2] = excess molar enthalpy (molar enthalpy of mixing); xn = mol fraction of the nth substance listed; settings: 323.15 K, 101 kPa, Liquid, Flow calorimetry

CC(C)=O [acetone]
Settings | mass density [kg/m3]
[1] | 790.31

CC(C)=O [acetone] + CCCO
[2]
Settings | excess molar enthalpy [kcal/mol]
x2 = 0.025 | 0.0605
x2 = 0.052 | 0.0968
x2 = 0.101 | 0.154
x2 = 0.151 | 0.202
x2 = 0.2 | 0.245
x2 = 0.252 | 0.282
x2 = 0.302 | 0.311
x2 = 0.351 | 0.334
x2 = 0.401 | 0.349
x2 = 0.451 | 0.359
x2 = 0.501 | 0.363
x2 = 0.551 | 0.361
x2 = 0.601 | 0.354
x2 = 0.651 | 0.34
x2 = 0.702 | 0.32
x2 = 0.752 | 0.295
x2 = 0.8 | 0.265
x2 = 0.851 | 0.223
x2 = 0.901 | 0.168
x2 = 0.952 | 0.112
x2 = 0.975 | 0.0803

CC(C)=O [acetone] + CCO
[2]
Settings | excess molar enthalpy [kcal/mol]
x2 = 0.05 | 0.0609
x2 = 0.102 | 0.115
x2 = 0.15 | 0.156
x2 = 0.2 | 0.192
x2 = 0.252 | 0.222
x2 = 0.3 | 0.243
x2 = 0.352 | 0.259
x2 = 0.4 | 0.269
x2 = 0.452 | 0.273
x2 = 0.501 | 0.272
x2 = 0.551 | 0.265
x2 = 0.6 | 0.255
x2 = 0.65 | 0.24
x2 = 0.702 | 0.22
x2 = 0.752 | 0.196
x2 = 0.8 | 0.168
x2 = 0.85 | 0.134
x2 = 0.901 | 0.0937
x2 = 0.95 | 0.0504

C1CCCCC1 [cyclohexane]
Settings | mass density [kg/m3]
[1] | 778.56

C1CCCCC1 [cyclohexane] + CCO
[2]
Settings | excess molar enthalpy [kcal/mol]
x2 = 0.032 | 0.106
x2 = 0.054 | 0.132
x2 = 0.102 | 0.169
x2 = 0.151 | 0.192
x2 = 0.202 | 0.207
x2 = 0.251 | 0.217
x2 = 0.3 | 0.223
x2 = 0.351 | 0.226
x2 = 0.401 | 0.226
x2 = 0.452 | 0.223
x2 = 0.5 | 0.217
x2 = 0.551 | 0.209
x2 = 0.601 | 0.198
x2 = 0.65 | 0.185
x2 = 0.707 | 0.165
x2 = 0.75 | 0.15
x2 = 0.802 | 0.127
x2 = 0.851 | 0.101
x2 = 0.901 | 0.0722
x2 = 0.951 | 0.038

CCO [ethanol]
Settings | mass density [kg/m3]
[1] | 789.29

CCCCCCC [heptane]
Settings | mass density [kg/m3]
[1] | 683.91

CCCCCCC [heptane] + CCCO
[2]
Settings | excess molar enthalpy [kcal/mol]
x2 = 0.01 | 0.0963
x2 = 0.024 | 0.142
x2 = 0.034 | 0.161
x2 = 0.053 | 0.188
x2 = 0.103 | 0.229
x2 = 0.154 | 0.254
x2 = 0.203 | 0.269
x2 = 0.254 | 0.279
x2 = 0.301 | 0.283
x2 = 0.353 | 0.282
x2 = 0.402 | 0.277
x2 = 0.451 | 0.27
x2 = 0.503 | 0.26
x2 = 0.551 | 0.247
x2 = 0.602 | 0.232
x2 = 0.651 | 0.214
x2 = 0.702 | 0.195
x2 = 0.75 | 0.174
x2 = 0.801 | 0.147
x2 = 0.851 | 0.124
x2 = 0.901 | 0.0987
x2 = 0.951 | 0.0717

CCCCCCCC [octane]
Settings | mass density [kg/m3]
[1] | 702.87

CCCCCCCC [octane] + CCCO
[2]
Settings | excess molar enthalpy [kcal/mol]
x2 = 0.027 | 0.202
x2 = 0.053 | 0.254
x2 = 0.103 | 0.31
x2 = 0.15 | 0.337
x2 = 0.208 | 0.359
x2 = 0.254 | 0.367
x2 = 0.301 | 0.37
x2 = 0.352 | 0.367
x2 = 0.401 | 0.363
x2 = 0.452 | 0.351
x2 = 0.5 | 0.337
x2 = 0.55 | 0.32
x2 = 0.602 | 0.297
x2 = 0.652 | 0.268
x2 = 0.702 | 0.242
x2 = 0.752 | 0.214
x2 = 0.802 | 0.181
x2 = 0.852 | 0.148
x2 = 0.901 | 0.106
x2 = 0.95 | 0.0784

CCCCCCCC [octane] + CCO
[2]
Settings | excess molar enthalpy [kcal/mol]
x2 = 0.028 | 0.206
x2 = 0.054 | 0.257
x2 = 0.104 | 0.303
x2 = 0.151 | 0.326
x2 = 0.201 | 0.343
x2 = 0.252 | 0.355
x2 = 0.304 | 0.357
x2 = 0.352 | 0.355
x2 = 0.404 | 0.348
x2 = 0.452 | 0.337
x2 = 0.502 | 0.323
x2 = 0.551 | 0.307
x2 = 0.601 | 0.288
x2 = 0.651 | 0.267
x2 = 0.7 | 0.245
x2 = 0.752 | 0.217
x2 = 0.801 | 0.191
x2 = 0.85 | 0.16
x2 = 0.901 | 0.121
x2 = 0.95 | 0.0813

CCCO [propan-1-ol]
Settings | mass density [kg/m3]
[1] | 803.63
